{"source": "paper PMC11726555", "about": "“Photoswitchable Diazocine Derivative for Adenosine A3 Receptor Activation in Psoriasis” (Journal of the American Chemical Society, 2024)", "type_in_all_cases": "cell-based", "key": {"[1]": {"target": "T1, adenosine A3 receptor (A3R) (Homo sapiens, UniProt P0DMS8)", "T1 construct": "gene ADORA3", "T1 sequence (P0DMS8 1-318)": "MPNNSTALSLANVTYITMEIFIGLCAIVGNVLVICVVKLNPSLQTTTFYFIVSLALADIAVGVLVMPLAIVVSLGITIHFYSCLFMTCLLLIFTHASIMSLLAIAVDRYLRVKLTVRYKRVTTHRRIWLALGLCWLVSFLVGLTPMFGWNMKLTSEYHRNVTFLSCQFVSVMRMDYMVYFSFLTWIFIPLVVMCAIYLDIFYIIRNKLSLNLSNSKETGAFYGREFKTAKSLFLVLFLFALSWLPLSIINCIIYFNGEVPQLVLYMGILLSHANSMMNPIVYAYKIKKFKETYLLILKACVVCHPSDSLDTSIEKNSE", "assay": "inhibition of forskolin-stimulated cAMP accumulation in HEK-293 cells expressing A3R (partial agonist, Emax […])", "conditions": "read-out: IC50 (the source's name)"}, "[2]": {"target": "T1, adenosine A3 receptor (A3R)", "assay": "cAMP accumulation assay in HEK-293 cells expressing A3R (reference agonist)"}, "[3]": {"target": "T2, A1R (adenosine A1 receptor) (Homo sapiens, UniProt P30542)", "T2 construct": "gene ADORA1", "T2 sequence (P30542 1-326)": "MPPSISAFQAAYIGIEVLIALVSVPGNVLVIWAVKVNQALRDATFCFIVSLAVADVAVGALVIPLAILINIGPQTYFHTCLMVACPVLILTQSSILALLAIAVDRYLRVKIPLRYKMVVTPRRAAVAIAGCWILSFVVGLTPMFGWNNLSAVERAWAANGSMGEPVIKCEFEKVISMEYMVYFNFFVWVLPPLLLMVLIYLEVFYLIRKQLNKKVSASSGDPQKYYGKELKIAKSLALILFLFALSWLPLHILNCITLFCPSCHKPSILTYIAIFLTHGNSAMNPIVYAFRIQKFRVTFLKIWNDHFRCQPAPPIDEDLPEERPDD", "assay": "cAMP accumulation assay in HEK-293 cells expressing A1R (reference agonist)"}}}
{"smiles": "CNC(=O)[C@H]1O[C@@H](n2cnc3c(NCc4ccc5c(c4)/N=N/c4ccccc4CC5)ncnc32)[C@H](O)[C@@H]1O", "note": "[compound 4, E-MRS7787]", "values": [{"measurement": "EC50", "setting": "[1]", "result": 0.031, "unit": "µM"}]}
{"smiles": "CNC(=O)[C@@]12C[C@@H]1[C@@H](n1cnc3c(NCc4cccc(Cl)c4)nc(C#Cc4ccc(F)c(F)c4)nc31)[C@H](O)[C@@H]2O", "note": "[MRS5698, (1S,2R,3S,4R,5S)-4-(6-((3-chlorobenzyl)amino)-2-((3,4-difluorophenyl)-ethynyl)-9H-purin-9-yl)-2,3-dihydroxy-N-methylbicyclo[3.1.0]hexane-1-carboxamide]", "values": [{"measurement": "cAMP accumulation assay in HEK-293 cells expressing A3R (reference agonist)", "setting": "[2]", "result": "treatment with MRS5698 and CPA (N^6-cyclopentyladenosine, selective A1R agonist) induced the maximum A3R- and A1R-mediated inhibition of cAMP accumulation"}]}
{"smiles": "OC[C@H]1O[C@@H](n2cnc3c(NC4CCCC4)ncnc32)[C@H](O)[C@@H]1O", "note": "[CPA]", "values": [{"measurement": "cAMP accumulation assay in HEK-293 cells expressing A1R (reference agonist)", "setting": "[3]", "result": "CPA (N^6-cyclopentyladenosine, selective A1R agonist) induced the maximum A3R- and A1R-mediated inhibition of cAMP accumulation"}]}
